According to ChEMBL document CHEMBL3862024, “2-Phenylbenzo[b]furans: Synthesis and promoting activity on estrogen biosynthesis” (Bioorg Med Chem Lett, 2016):

Experiments:
[1] = Induction of estrogen biosynthesis in aromatase overexpressing HEK293A cells assessed as increase in 17beta-estradiol levels at 50 uM preincubated for 24 hrs followed by testosterone addition measured after 24 hrs by magnetic particle-based ELISA relative to egonol gentiobioside; format: functional, Homo sapiens, HEK293-A
[2] = Cytotoxicity against aromatase overexpressing HEK293A cells assessed as effect on cell proliferation at 10 to 50 uM; format: toxicity, cell-based; conditions: human, hek293-a
[3] = Induction of estrogen biosynthesis in aromatase overexpressing HEK293A cells assessed as increase in 17beta-estradiol levels preincubated for 24 hrs followed by testosterone addition measured after 24 hrs by magnetic particle-based ELISA; format: functional, cell-based; conditions: Homo sapiens, HEK293-A

| EC50 [3] | Compound | fold change (FC) [1] | Activity [2] |
| --- | --- | --- | --- |
| 15.5 µM | c1ccc(-c2cc3ccccc3o2)cc1 | >0.6 | Non-Toxic |
|  | COc1cccc2cc(-c3ccccc3)oc12 |  | Non-Toxic |
|  | COc1ccc(-c2cc3cccc(OC)c3o2)cc1OC |  | Non-Toxic |
|  | COc1ccc(-c2cc3ccccc3o2)cc1 |  | Non-Toxic |
|  | COc1ccc(-c2cc3cc(Cl)ccc3o2)cc1 |  | Non-Toxic |
| 20.1 µM | COc1cc(Cl)cc2cc(-c3ccc(F)cc3)oc12 | >0.6 | Non-Toxic |
|  | COc1cc(Cl)cc2cc(-c3ccc(Cl)cc3)oc12 |  | Non-Toxic |
|  | COc1cccc2cc(-c3ccc([N+](=O)[O-])cc3)oc12 |  | Non-Toxic |
| 20.9 µM | COc1ccc(-c2cc3cc(Br)cc(OC)c3o2)cc1 | >0.6 | Non-Toxic |
|  | COc1cc(Cl)cc2cc(-c3ccccc3)oc12 |  | Non-Toxic |
| 29.4 µM | COc1cc(-c2cc3cc(Cl)ccc3o2)cc(OC)c1OC | >0.6 | Non-Toxic |
|  | COc1ccc(-c2cc3cc(Br)cc(OC)c3o2)cc1OC |  | Non-Toxic |
|  | O=[N+]([O-])c1ccc(-c2cc3cc(Cl)cc(Cl)c3o2)cc1 |  | Non-Toxic |
|  | COc1cc(CCCOC(C)=O)c(C=O)c2cc(-c3ccc4c(c3)OCO4)oc12 |  | Non-Toxic |
|  | COc1cccc2cc(-c3ccc4c(c3)OCO4)oc12 | >0.6 | Non-Toxic |
| 17.2 µM | Clc1ccc2oc(-c3ccc(OCc4ccccc4)cc3)cc2c1 | >0.6 | Non-Toxic |
|  | COc1ccc(-c2cc3cc(Cl)ccc3o2)cc1OC |  | Non-Toxic |
|  | COc1ccccc1-c1cc2cc(Cl)ccc2o1 |  | Non-Toxic |
|  | COc1cc(SC)cc2cc(-c3ccc(Cl)cc3)oc12 |  | Non-Toxic |
|  | COc1cc(CCCO)c(Br)c2c(Br)c(-c3ccc4c(c3)OCO4)oc12 |  | Non-Toxic |
| 25.5 µM | COc1ccc(-c2cc3cc(Br)cc(OC)c3o2)cc1O | >0.6 | Non-Toxic |
|  | Clc1ccc(-c2cc3cc(Cl)ccc3o2)cc1 |  | Non-Toxic |
|  | COc1cccc(-c2cc3cc(Br)cc(OC)c3o2)c1 | >0.6 | Non-Toxic |
| 24.9 µM | Fc1ccc(-c2cc3ccccc3o2)cc1 | >0.6 | Non-Toxic |
| 14.7 µM | COc1cccc2cc(-c3ccc(Cl)cc3)oc12 | >0.6 | Non-Toxic |
|  | COc1ccc(-c2cc3cccc(OC)c3o2)cc1 |  | Non-Toxic |
|  | COc1ccc(-c2cc3ccccc3o2)cc1OC |  | Non-Toxic |
| 19.4 µM | COc1ccc(OC)c(-c2cc3cc(SC)cc(OC)c3o2)c1 | >0.6 | Non-Toxic |

| EC50 [3] | Compound | fold change (FC) [1] | Activity [2] |
| --- | --- | --- | --- |
|  | COc1ccc(-c2cc3cc(Cl)cc(Cl)c3o2)cc1OC |  | Non-Toxic |
| 20.8 µM | COc1cccc(-c2cc3ccccc3o2)c1 | >0.6 | Non-Toxic |
|  | Clc1cc(Cl)c2oc(-c3ccccc3)cc2c1 |  | Non-Toxic |
| 19.6 µM | COc1cccc(-c2cc3cc(Cl)cc(Cl)c3o2)c1 | >0.6 | Non-Toxic |
| 22.1 µM | COc1cc(CCCO)c(Br)c2cc(-c3ccc4c(c3)OCO4)oc12 | >0.6 | Non-Toxic |
|  | O=[N+]([O-])c1ccc(-c2cc3cc(Cl)ccc3o2)cc1 |  | Non-Toxic |
|  | COc1cc(-c2cc3cc(Br)cc(OC)c3o2)ccc1O |  | Non-Toxic |
|  | COc1ccccc1-c1cc2cc(Cl)cc(Cl)c2o1 |  | Non-Toxic |
|  | COc1cccc(-c2cc3cccc(OC)c3o2)c1 |  | Non-Toxic |
|  | COc1cc(SC)cc2cc(-c3ccc(F)cc3)oc12 |  | Non-Toxic |
| 30.9 µM | COc1cc(Br)cc2cc(-c3ccc([N+](=O)[O-])cc3)oc12 | >0.6 | Non-Toxic |
|  | COc1cc(CCCOC(C)=O)cc2c(C=O)c(-c3ccc4c(c3)OCO4)oc12 |  | Non-Toxic |
|  | COc1cc(Br)cc2cc(-c3ccc4c(c3)OCO4)oc12 |  | Non-Toxic |
|  | COc1c(Br)c(CCCO)c(Br)c2c(Br)c(-c3ccc4c(c3)OCO4)oc12 |  | Non-Toxic |
|  | COc1ccc(-c2cc3cc(Cl)cc(Cl)c3o2)cc1 |  | Non-Toxic |
|  | c1ccc2oc(-c3ccc4c(c3)OCO4)cc2c1 |  | Non-Toxic |
| 15.7 µM | COc1cc(CCCO[C@@H]2O[C@H](CO[C@@H]3O[C@H](CO)[C@@H](O)[C@H](O)[C@H]3O)[C@@H](O)[C@H](O)[C@H]2O)cc2cc(-c3ccc4c(c3)OCO4)oc12 |  |  |
|  | COc1cccc2cc(-c3ccc(F)cc3)oc12 |  | Non-Toxic |
|  | C=CC(=O)OCCCc1cc(OC)c2oc(-c3ccc4c(c3)OCO4)cc2c1 |  | Non-Toxic |
|  | COc1cc(CCCI)cc2cc(-c3ccc4c(c3)OCO4)oc12 |  | Non-Toxic |
|  | COc1cc(CCC=O)cc2cc(-c3ccc4c(c3)OCO4)oc12 |  | Non-Toxic |
|  | COc1cc(CCCBr)cc2cc(-c3ccc4c(c3)OCO4)oc12 |  | Non-Toxic |
|  | COc1cc(CCCOC(=O)c2ccccc2)cc2cc(-c3ccc4c(c3)OCO4)oc12 | >0.6 | Non-Toxic |
|  | COc1cc(CCCCl)cc2cc(-c3ccc4c(c3)OCO4)oc12 | >0.6 | Non-Toxic |
|  | COc1cc(CCCOC(C)=O)cc2cc(-c3ccc4c(c3)OCO4)oc12 [EGONOL ACETATE] |  | Non-Toxic |
|  | CCCC(=O)OCCCc1cc(OC)c2oc(-c3ccc4c(c3)OCO4)cc2c1 [EGONOLBUTANOATE] |  | Non-Toxic |
|  | COc1cc(CCCO)cc2cc(-c3ccc4c(c3)OCO4)oc12 [EGONOL] |  | Non-Toxic |
